Laboratory results reported in patent US20260097022A1, “COMPOUNDS AND USES THEREOF” (Integrated Biosciences, Inc., priority 2023, published 2026).

Tested on: etoposide-treated IMR-90 cells
Test: Etoposide-induced senescence model, resazurin cell viability (screen and dose-response)
Assay type: cell-based, human
Settings: etoposide-induced senescence model; ratio of IC50 values between etoposide- and DMSO-treated IMR-90 fibroblasts
Protocol: Cell culture. Human lung fibroblast (IMR-90) cells were obtained from ATCC (CCL-186) and passaged less than 10 times (less than 30 population doublings) for all experiments described in this example, with the exception of high-passage cells used in the model of replicative senescence (see the section on Replicative senescence below). Cells were cultured in growth media comprising Eagle's Minimum Essential Medium (EMEM: ATCC 30-2003) supplemented with 10% fetal bovine serum (FBS: Thermo Fisher 16140071) and 1% penicillin-streptomycin (Thermo Fisher 15070063). Cells were incubated in a humidity-controlled incubator at 37° C., with 5% CO2. Cells were detached using trypsin-EDTA (0.05%; Gibco 25300120).
Etoposide-induced senescence. IMR-90 cells were cultured as described above. At between 30 to 50% confluence, the media was replaced with complete growth media containing vehicle (0.5% dimethyl sulfoxide: DMSO, MilliporeSigma D5879) or complete growth media containing 50 μM etoposide (prepared as a 1:200 dilution of a 10 mM stock solution in DMSO; etoposide, MilliporeSigma E1383). Cells were treated for 2 days, after which the media was replaced with fresh growth media and cells were allowed to recover for 4 days. Cells were then plated as described below.
Chemical screening. For all screening experiments. 99 μL of cells were plated into each well of a 96-well clear flat-bottom, black polystyrene tissue-culture-treated plate (Corning 3904) at a density of ˜10+ cells/well. Plates were incubated overnight for adhesion. The day after plating. 1 μL of each compound, prepared as either a 1 mM stock solution in DMSO (10 μM final concentration screen) or 0.1 mM stock solution in DMSO (1 μM final concentration screen), was added to each well using an Agilent Bravo liquid handler. A built-in slow mixing step involving aspirating and dispensing was used to enhance distribution of the added compounds in solution. Cells were incubated for 3 days, after which resazurin (MilliporeSigma R^7017) was added to each well to a final concentration of 0.15 mM. After an additional 1 day of incubation, the fluorescence excitation/emission at 550/590 nm was read using a SpectraMaxR M3 plate reader and manufacturer software (SoftMax Pro R 6). Experiments were performed in biological duplicate.
Three-fold serial dilutions of compound were prepared in DMSO, then added to cell plates (final concentration of DMSO. 1%). Cell viability was then assayed as detailed above, and resazurin fluorescence values were linearly interpolated with respect to values from empty and positive control (non-treatment) wells. Experiments were performed in biological duplicate each on two independent occasions. When possible, chemical stocks from commercial suppliers were used: econazole nitrate (Cayman Chemical 20223), artenimol (Cayman Chemical 19846), and ABT-263 (Cayman Chemical 11500) were from Cayman Chemical, and dehydrodeguelin was aliquoted from the screening library.
Calculation of cellular viability values in dose-response curves. […] For each sample, the fluorescence intensity value was normalized by the mean of two untreated control values. Cellular viability values are therefore indicated as fractions of the cellular viability of untreated controls. Vehicle (1% DMSO) control values are included in each dose-response curve. Experiments were performed in biological duplicate each on two independent occasions.
Calculation of baseline cellular viability values. […] Additionally, baseline cellular viability values were calculated for untreated cells at the start of the experiment. Resazurin was added to a final concentration of 0.15 mM on the day of seeding (corresponding to day 0 in FIG. 7).

Compound | Therapeutic Index (TI)
Cc1cccc(C(=O)Nc2ccc3nc(SCC(=O)Nc4cc(Cl)ccc4C)sc3c2)c1 [compound 70] | ++ (compounds with a TI of 1 to 5 were labelled as ++)
COc1ccccc1C(=O)Nc1ccc2nc(SCC(=O)N(C)c3ccccc3)sc2c1 [compound 71] | ++ (compounds with a TI of 1 to 5 were labelled as ++)
Cc1cc(C)c(NC(=O)CSc2nc3ccc(NC(=O)c4ccccc4C)cc3s2)c(C)c1 [compound 72] | ++ (compounds with a TI of 1 to 5 were labelled as ++)
Cc1ccccc1C(=O)Nc1ccc2nc(SCC(=O)Nc3ccc([N+](=O)[O-])cc3)sc2c1 [compound 73] | ++ (compounds with a TI of 1 to 5 were labelled as ++)
COc1ccc(C(=O)Nc2ccc3nc(SCC(=O)Nc4ccc(C)c(Cl)c4)sc3c2)cc1 [compound 74] | ++ (compounds with a TI of 1 to 5 were labelled as ++)
Cc1ccccc1C(=O)Nc1ccc2nc(SCC(N)=O)sc2c1 [compound 75] | ++ (compounds with a TI of 1 to 5 were labelled as ++)
CCCCOc1ccc(C(=O)Nc2ccc3nc(SCC(=O)Nc4ccccc4)sc3c2)cc1 [compound 76] | ++ (compounds with a TI of 1 to 5 were labelled as ++)
CCCCOc1ccc(NC(=O)CSc2nc3ccc(NC(=O)c4ccc(Cl)cc4)cc3s2)cc1 [compound 77] | ++ (compounds with a TI of 1 to 5 were labelled as ++)
CCCCOc1ccc(C(=O)Nc2ccc3nc(SCC(=O)Nc4ccc(C(C)=O)cc4)sc3c2)cc1 [compound 78] | ++ (compounds with a TI of 1 to 5 were labelled as ++)
COc1ccc(NC(=O)CSc2nc3ccc(NC(=O)c4cccc(Cl)c4)cc3s2)cc1 [compound 79] | ++ (compounds with a TI of 1 to 5 were labelled as ++)
CCOc1ccc(C(=O)Nc2ccc3nc(SCC(=O)Nc4cccc(C)c4)sc3c2)cc1 [compound 80] | ++ (compounds with a TI of 1 to 5 were labelled as ++)
Cc1ccc(C(=O)Nc2ccc3nc(SCC(=O)N(C)c4ccccc4)sc3c2)cc1 [compound 81] | ++ (compounds with a TI of 1 to 5 were labelled as ++)
CCCCOc1ccc(C(=O)Nc2ccc3nc(SCC(=O)Nc4ccc(C(C)C)cc4)sc3c2)cc1 [compound 82] | ++ (compounds with a TI of 1 to 5 were labelled as ++)
COc1ccc(C(=O)Nc2ccc3nc(SCC(=O)Nc4cccc(C)c4)sc3c2)cc1 [compound 83] | ++ (compounds with a TI of 1 to 5 were labelled as ++)
COc1ccccc1C(=O)Nc1ccc2nc(SCC(=O)Nc3ccc(F)cc3)sc2c1 [compound 84] | ++ (compounds with a TI of 1 to 5 were labelled as ++)
COc1ccc(NC(=O)CSc2nc3ccc(NC(=O)c4ccc(OC)cc4)cc3s2)cc1 [compound 85] | ++ (compounds with a TI of 1 to 5 were labelled as ++)
CCCCOc1ccc(NC(=O)CSc2nc3ccc(NC(=O)c4ccc(OCCCC)cc4)cc3s2)cc1 [compound 86] | ++ (compounds with a TI of 1 to 5 were labelled as ++)
O=C(CSc1nc2ccc(NC(=O)c3ccccc3)cc2s1)Nc1cccc([N+](=O)[O-])c1 [compound 87] | ++ (compounds with a TI of 1 to 5 were labelled as ++)
Cc1ccc(NC(=O)CSc2nc3ccc(NC(=O)c4ccccc4)cc3s2)c(C)c1 [compound 88] | ++ (compounds with a TI of 1 to 5 were labelled as ++)
CCCCOc1ccc(NC(=O)CSc2nc3ccc(NC(=O)c4ccccc4)cc3s2)cc1 [compound 89] | ++ (compounds with a TI of 1 to 5 were labelled as ++)
Cc1ccc(NC(=O)C(C)Sc2nc3ccc(NC(=O)c4ccc(Cl)cc4)cc3s2)cc1 (stereo not drawn) [compound 90] | ++ (compounds with a TI of 1 to 5 were labelled as ++)
CCOc1ccc(C(=O)Nc2ccc3nc(SCC(N)=O)sc3c2)cc1 [compound 91] | ++ (compounds with a TI of 1 to 5 were labelled as ++)
O=C(CSc1nc2ccc(NC(=O)c3cccc4ccccc34)cc2s1)Nc1ccccc1F [compound 92] | ++ (compounds with a TI of 1 to 5 were labelled as ++)

Compound | Therapeutic Index (TI)
Cc1ccccc1C(=O)Nc1ccc2nc(SCC(=O)NCCOc3ccccc3)sc2c1 [compound 93] | ++ (compounds with a TI of 1 to 5 were labelled as ++)
CCOc1ccc(C(=O)Nc2ccc3nc(SCC(=O)Nc4ccc(C)cc4)sc3c2)cc1 [compound 94] | ++ (compounds with a TI of 1 to 5 were labelled as ++)
Cc1cccc(NC(=O)CSc2nc3ccc(NC(=O)c4ccccc4Cl)cc3s2)c1C [compound 95] | ++ (compounds with a TI of 1 to 5 were labelled as ++)
O=C(CSc1nc2ccc(NC(=O)c3ccccc3Cl)cc2s1)Nc1ccccc1 [compound 96] | ++ (compounds with a TI of 1 to 5 were labelled as ++)
CCc1cccc(CC)c1NC(=O)CSc1nc2ccc(NC(=O)c3ccccc3)cc2s1 [compound 97] | ++ (compounds with a TI of 1 to 5 were labelled as ++)
CC(C)(C)c1ccc(C(=O)Nc2ccc3nc(SCC(=O)Nc4ccccc4)sc3c2)cc1 [compound 98] | ++ (compounds with a TI of 1 to 5 were labelled as ++)
Cc1ccc(NC(=O)CSc2nc3ccc(NC(=O)c4ccccc4C)cc3s2)c(C)c1 [compound 99] | ++ (compounds with a TI of 1 to 5 were labelled as ++)
Cc1ccccc1C(=O)Nc1ccc2nc(SCC(=O)Nc3ccc(Cl)cc3)sc2c1 [compound 100] | ++ (compounds with a TI of 1 to 5 were labelled as ++)
COc1ccc(NC(=O)CSc2nc3ccc(NC(=O)c4ccccc4OC)cc3s2)cc1 [compound 101] | ++ (compounds with a TI of 1 to 5 were labelled as ++)
Cc1cccc(NC(=O)CSc2nc3ccc(NC(=O)c4cccc5ccccc45)cc3s2)c1C [compound 102] | ++ (compounds with a TI of 1 to 5 were labelled as ++)
COc1ccc(C(=O)Nc2ccc3nc(SCC(=O)Nc4cc(C)cc(C)c4)sc3c2)cc1 [compound 103] | ++ (compounds with a TI of 1 to 5 were labelled as ++)
COc1ccccc1C(=O)Nc1ccc2nc(SCC(=O)Nc3ccccc3)sc2c1 [compound 104] | ++ (compounds with a TI of 1 to 5 were labelled as ++)
COC(=O)c1ccc(NC(=O)CSc2nc3ccc(NC(=O)c4ccccc4F)cc3s2)cc1 [compound 105] | ++ (compounds with a TI of 1 to 5 were labelled as ++)
Cc1cccc(C(=O)Nc2ccc3nc(SCC(=O)Nc4ccccc4)sc3c2)c1 [compound 106] | ++ (compounds with a TI of 1 to 5 were labelled as ++)
Cc1ccccc1C(=O)Nc1ccc2nc(SCC(=O)Nc3cccc(Cl)c3)sc2c1 [compound 107] | ++ (compounds with a TI of 1 to 5 were labelled as ++)
COc1ccc(NC(=O)CSc2nc3ccc(NC(=O)c4cccc5ccccc45)cc3s2)cc1 [compound 108] | ++ (compounds with a TI of 1 to 5 were labelled as ++)
CCCCOc1ccc(NC(=O)CSc2nc3ccc(NC(=O)c4ccccc4OC)cc3s2)cc1 [compound 109] | ++ (compounds with a TI of 1 to 5 were labelled as ++)
Cc1ccccc1C(=O)Nc1ccc2nc(SCC(=O)Nc3ccccc3Cl)sc2c1 [compound 110] | ++ (compounds with a TI of 1 to 5 were labelled as ++)
COc1ccc(NC(=O)CSc2nc3ccc(NC(=O)c4ccc(Cl)cc4)cc3s2)cc1 [compound 111] | ++ (compounds with a TI of 1 to 5 were labelled as ++)
COc1ccccc1C(=O)Nc1ccc2nc(SCC(=O)Nc3ccc(Cl)cc3)sc2c1 [compound 112] | ++ (compounds with a TI of 1 to 5 were labelled as ++)
COc1ccc(C(=O)Nc2ccc3nc(SCC(=O)Nc4cc(Cl)ccc4C)sc3c2)cc1 [compound 113] | ++ (compounds with a TI of 1 to 5 were labelled as ++)
CC(=O)c1ccc(NC(=O)CSc2nc3ccc(NC(=O)c4ccc(Cl)cc4)cc3s2)cc1 [compound 114] | ++ (compounds with a TI of 1 to 5 were labelled as ++)
